Experimental data as given in patent publication US9624182B2, “Compounds as lysophosphatidic acid receptor antagonists” (Amira Pharmaceuticals, Inc., priority 2009, dated 2017).

target: T1, human LPA1 (Homo sapiens, UniProt Q92633); test: LPA1 calcium flux assay; format: cell-based; settings: CHO cells expressing human LPA1, stimulated with 10 nM LPA; read-out: HLPA1 Ca Flux IC50
T1 construct: the full-length cDNA for human LPA1 was obtained by PCR of the reverse transcription reaction; expressed in transfected cells
T1 sequence (Q92633 whole entry): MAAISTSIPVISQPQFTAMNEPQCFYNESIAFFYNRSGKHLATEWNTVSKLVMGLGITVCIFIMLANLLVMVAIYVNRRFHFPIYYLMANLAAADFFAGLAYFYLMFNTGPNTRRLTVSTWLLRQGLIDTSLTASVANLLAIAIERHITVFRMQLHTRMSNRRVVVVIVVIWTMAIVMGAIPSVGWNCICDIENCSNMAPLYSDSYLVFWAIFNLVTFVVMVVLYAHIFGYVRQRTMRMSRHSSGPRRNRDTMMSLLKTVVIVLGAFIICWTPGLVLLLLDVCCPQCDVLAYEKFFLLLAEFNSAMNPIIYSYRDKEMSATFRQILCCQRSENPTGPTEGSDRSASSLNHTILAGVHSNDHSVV
Outline: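 CHO cells stably expressing cloned human LPA1, serum-starved overnight, loaded with Calcium 4 dye 1 h at 37 °C in HBSS/20 mM Hepes with 0.3% fatty-acid-free HSA. Compounds preincubated 30 min at room temperature, then cells stimulated with 10 nM LPA; intracellular Ca2+ read by fluorescence. IC50 from titration curves.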

| IC50 [nM] | SMILES |
| --- | --- |
| 1000 to 50000 | Cc1noc(-c2ccc(-c3ccc(C4(C(=O)O)CC4)cc3)cc2)c1Nc1ncnc2scc(C)c12 [Compound 1-212, 1-{4′-[3-Methyl-4-(5-methyl-thieno[2,3-d]pyrimidin-4-ylamino)-isoxazol-5-yl]-biphenyl-4-yl}-cyclopropanecarboxylic acid] |
| < 300 | Cc1noc(-c2ccc(-c3ccc(C4(C(=O)O)CC4)cc3)cc2)c1C(O)CSCC(F)(F)F (stereo not shown) [Compound 1-276, 1-(4′-{4-[1-Hydroxy-2-(2,2,2-trifluoro-ethylsulfanyl)-ethyl]-3-methyl-isoxazol-5-yl}-biphenyl-4-yl)-cyclopropanecarboxylic acid] |
| 1000 to 50000 | Cc1noc(-c2ccc(-c3ccc(C4(C(=O)O)CC4)cc3)cc2)c1CNCC1CC1 [Compound 1-27, 1-(4′-{4-[(Cyclopropylmethyl-amino)-methyl]-3-methyl-isoxazol-5-yl}-biphenyl-4-yl)-cyclopropanecarboxylic acid] |
| 300 to 1000 | Cc1noc(-c2ccc(-c3ccc(C4(C(=O)O)CC4)cc3)cc2)c1CCC(=O)N(C)CC1CC1 [Compound 1-119, 1-(4′-{4-[2-(Cyclopropylmethyl-methyl-carbamoyl)-ethyl]-3-methyl-isoxazol-5-yl}-biphenyl-4-yl)-cyclopropanecarboxylic acid] |
| 1000 to 50000 | COc1ccc(CC(C)Nc2c(C)noc2-c2ccc(-c3ccc(C4(CC(=O)O)CC4)cc3)cc2)cc1 (stereo not shown) [Compound 1-236, [1-(4′-{4-[2-(4-Methoxy-phenyl)-1-methyl-ethylamino]-3-methyl-isoxazol-5-yl}-biphenyl-4-yl)-cyclopropyl]-acetic acid] |
| 1000 to 50000 | Cc1noc(-c2ccc(-c3ccc(C4(C(=O)O)CC4)cc3)cc2)c1Nc1cccc(O)n1 [Compound 1-302, 1-{4′-[4-(6-Hydroxy-pyridin-2-ylamino)-3-methyl-isoxazol-5-yl]-biphenyl-4-yl}-cyclopropanecarboxylic acid] |
| 1000 to 50000 | CC(=O)N(CCc1c(C)noc1-c1ccc(-c2ccc(C3(C(=O)O)CC3)cc2)cc1)Cc1ccccc1 [Compound 1-142, 1-(4′-{4-[2-(Acetyl-benzyl-amino)-ethyl]-3-methyl-isoxazol-5-yl}-biphenyl-4-yl)-cyclopropanecarboxylic acid] |
| < 300 | Cc1noc(-c2ccc(-c3ccc([C@H]4C[C@H]4C(=O)O)cc3)cc2)c1C(O)CCCc1ccccc1 (relative stereo) [Compound 1-144, (cis)-2-{4′-[4-(1-Hydroxy-4-phenyl-butyl)-3-methyl-isoxazol-5-yl]-biphenyl-4-yl}-cyclopropanecarboxylic acid] |
| 1000 to 50000 | Cc1noc(-c2ccc(-c3ccc(C4(C(=O)O)CC4)cc3)cc2)c1Cn1cc(Br)cn1 [Compound 1-196, 1-{4′-[4-(4-Bromo-pyrazol-1-ylmethyl)-3-methyl-isoxazol-5-yl]-biphenyl-4-yl}-cyclopropanecarboxylic acid] |
| < 300 | Cc1noc(-c2ccc(-c3ccc(C4(C(=O)O)CC4)cc3)cc2)c1Nc1cccc(Br)n1 [Compound 1-313, 1-{4′-[4-(6-Bromo-pyridin-2-ylamino)-3-methyl-isoxazol-5-yl]-biphenyl-4-yl}-cyclopropanecarboxylic acid] |
| 1000 to 50000 | Cc1noc(-c2ccc(-c3ccc(C4(C(=O)O)CC4)cc3)cc2)c1NC(=O)NCc1cc(C(F)(F)F)ccc1F [Compound 1-15, 1-(4′-{4-[3-(2-Fluoro-5-trifluoromethyl-benzyl)-ureido]-3-methyl-isoxazol-5-yl}-biphenyl-4-yl)-cyclopropanecarboxylic acid] |
| < 300 | CC(=O)c1cccc(Nc2c(C)noc2-c2ccc(-c3ccc(C4(C(=O)O)CC4)cc3)cc2)n1 [Compound 1-311, 1-{4′-[4-(6-Acetyl-pyridin-2-ylamino)-3-methyl-isoxazol-5-yl]-biphenyl-4-yl}-cyclopropanecarboxylic acid] |
| 1000 to 50000 | Cc1noc(-c2ccc(-c3ccc(C4(C(=O)O)CC4)cc3)cc2)c1CSCc1ccccc1 [Compound 1-50, 1-[4′-(4-Benzylsulfanylmethyl-3-methyl-isoxazol-5-yl)-biphenyl-4-yl]-cyclopropanecarboxylic acid] |
| 300 to 1000 | Cc1noc(-c2ccc(-c3cccc(CC4(C(=O)O)CC4)c3)cc2)c1C(O)CCCc1ccccc1 (stereo not shown) [Compound 1-251, 1-{4′-[4-(1-Hydroxy-4-phenyl-butyl)-3-methyl-isoxazol-5-yl]-biphenyl-3-ylmethyl}-cyclopropanecarboxylic acid] |
| < 300 | CC(=O)N(Cc1c(C)noc1-c1ccc(-c2ccc(C3(C(=O)O)CC3)cc2)cc1)CC(C)c1ccccc1 (stereo not shown) [Compound 1-70, 1-[4′-(4-{[Acetyl-(2-phenyl-propyl)-amino]-methyl}-3-methyl-isoxazol-5-yl)-biphenyl-4-yl]-cyclopropanecarboxylic acid] |
| 1000 to 50000 | Cc1noc(-c2ccc(-c3ccc(C4(C(=O)O)CC4)cc3)cc2)c1CCC(=O)N1CCCC1 [Compound 1-41, 1-{4′-[3-Methyl-4-(3-oxo-3-pyrrolidin-1-yl-propyl)-isoxazol-5-yl]-biphenyl-4-yl}-cyclopropanecarboxylic acid] |

| IC50 [nM] | SMILES |
| --- | --- |
| < 300 | Cc1noc(-c2ccc(-c3ccc(CC(=O)O)cc3)cc2)c1CC(F)(F)CCc1ccccc1 [Compound 1-170, {4′-[4-(2,2-Difluoro-4-phenyl-butyl)-3-methyl-isoxazol-5-yl]-biphenyl-4-yl}-acetic acid] |
| < 300 | Cc1noc(-c2ccc(-c3ccc(C4(CC(=O)O)CC4)cc3)cc2)c1C(O)CCCCc1ccccc1 (stereo not shown) [Compound 1-207, (1-{4′-[4-(1-Hydroxy-5-phenyl-pentyl)-3-methyl-isoxazol-5-yl]-biphenyl-4-yl}-cyclopropyl)-acetic acid] |
| 1000 to 50000 | Cc1noc(-c2ccc(-c3ccc(C4(C(=O)O)CC4)cc3)cc2)c1CS(=O)(=O)Cc1ccccc1 [Compound 1-53, 1-[4′-(3-Methyl-4-phenylmethanesulfonylmethyl-isoxazol-5-yl)-biphenyl-4-yl]-cyclopropanecarboxylic acid] |
| 1000 to 50000 | Cc1noc(-c2ccc(-c3ccc(C4(C(=O)NS(=O)(=O)C5CC5)CC4)cc3)cc2)c1NC(=O)NS(=O)(=O)C1CC1 [Compound 2-6, Cyclopropanesulfonic acid (1-{4′-[4-(3-cyclopropylsulfonyl-ureido)-3-methyl-isoxazol-5-yl]-biphenyl-4-yl}-cyclopropanecarbonyl)-amide] |
| < 300 | C=CCCC(C)Nc1c(C)noc1-c1ccc(-c2ccc(C3(C(=O)O)CC3)cc2)cc1 (stereo not shown) [Compound 1-227, 1-{4′-[3-Methyl-4-(1-methyl-pent-4-enylamino)-isoxazol-5-yl]-biphenyl-4-yl}-cyclopropanecarboxylic acid] |
| 300 to 1000 | COc1ccc(CCC(C)Nc2c(C)noc2-c2ccc(-c3ccc(C4(CC(=O)O)CC4)cc3)cc2)cc1 (stereo not shown) [Compound 1-211, [1-(4′-{4-[3-(4-Methoxy-phenyl)-1-methyl-propylamino]-3-methyl-isoxazol-5-yl}-biphenyl-4-yl)-cyclopropyl]-acetic acid] |
| < 300 | CCCOc1cccc(Nc2c(C)noc2-c2ccc(-c3ccc(C4(C(=O)O)CC4)cc3)cc2)n1 [Compound 1-293, 1-{4′-[3-Methyl-4-(6-propoxy-pyridin-2-ylamino)-isoxazol-5-yl]-biphenyl-4-yl}-cyclopropanecarboxylic acid] |
| 300 to 1000 | Cc1noc(-c2ccc(-c3ccc(C4(C(=O)O)CC4)cc3)cc2)c1CNC(=O)C(C)Oc1ccccc1 (stereo not shown) [Compound 1-100, 1-(4′-{3-Methyl-4-[(2-phenoxy-propionylamino)-methyl]-isoxazol-5-yl}-biphenyl-4-yl)-cyclopropanecarboxylic acid] |
| 1000 to 50000 | Cc1noc(-c2ccc(-c3ccc(C4(C(=O)O)CC4)cc3)cc2)c1CCC(=O)NCC1CC1 [Compound 1-40, 1-(4′-{4-[2-(Cyclopropylmethyl-carbamoyl)-ethyl]-3-methyl-isoxazol-5-yl}-biphenyl-4-yl)-cyclopropanecarboxylic acid] |
| < 300 | COc1cncc(Nc2c(C)noc2-c2ccc(-c3ccc(C4(C(=O)O)CC4)cc3)cc2)c1 [Compound 1-291, 1-{4′-[4-(5-Methoxy-pyridin-3-ylamino)-3-methyl-isoxazol-5-yl]-biphenyl-4-yl}-cyclopropanecarboxylic acid] |
| 1000 to 50000 | Cc1noc(-c2ccc(-c3ccc(C4(C(=O)O)CC4)cc3)cc2)c1CCOCc1ccccn1 [Compound 1-75, 1-(4′-{3-Methyl-4-[2-(pyridin-2-ylmethoxy)-ethyl]-isoxazol-5-yl}-biphenyl-4-yl)-cyclopropanecarboxylic acid] |
| < 300 | CC(C)=CCCC(C)Nc1c(C)noc1-c1ccc(-c2ccc(C3(CC(=O)O)CC3)cc2)cc1 (stereo not shown) [Compound 1-204, (1-{4′-[4-(1,5-Dimethyl-hex-4-enylamino)-3-methyl-isoxazol-5-yl]-biphenyl-4-yl}-cyclopropyl)-acetic acid] |
| > 50000 | Cc1noc(-c2ccc(-c3ccc(C4(C(=O)O)CC4)cc3)cc2)c1CCC(=O)N1Cc2ccccc2C1 [Compound 1-107, 1-(4′-{4-[3-(1,3-Dihydro-isoindol-2-yl)-3-oxo-propyl]-3-methyl-isoxazol-5-yl}-biphenyl-4-yl)-cyclopropanecarboxylic acid] |
| 1000 to 50000 | Cc1noc(-c2ccc(-c3ccc(C4(C(=O)O)CC4)cc3)cc2)c1NC(=O)NS(=O)(=O)c1ccccc1 [Compound 1-18, 1-{4′-[4-(3-Benzenesulfonyl-ureido)-3-methyl-isoxazol-5-yl]-biphenyl-4-yl}-cyclopropanecarboxylic acid] |
| 1000 to 50000 | Cc1noc(-c2ccc(-c3ccc(C4(C(=O)O)CC4)cc3)cc2)c1C(C)C(=O)NC(C)c1ccccc1 (stereo not shown) [Compound 1-97, 1-(4′-{3-Methyl-4-[1-(1-phenyl-ethylcarbamoyl)-ethyl]-isoxazol-5-yl}-biphenyl-4-yl)-cyclopropanecarboxylic acid] |
